According to US8962263B2, “Methods and compositions for detecting the activation state of multiple proteins in single cells” (The Board of Trustees of the Leland Stanford Junior …, priority 2001, dated 2015):

What was measured:
LFA-1 = target: T1, LFA-1 (Mus musculus, UniProt P24063); conditions: oral; cited from earlier work
T1 construct: host or cells: mouse, in vivo

NIH3T3 = assay: staurosporine induced apoptosis in ICAM-2 transduced NIH3T3 (annexin-V binding, BrdU TUNEL); type: cell-based, murine; conditions: cell type not stated; data not shown
Protocol: A) Pharmacological inhibitors of PI3K abrogate ICAM-2's anti-apoptotic. ICAM-2, or vector transduced BaF3, cells were treated with staurosporine (1, μM) with (unfilled) or without (filled) the addition of 100, nM wortmannin for 24, hours (left bar graph). Apoptosis was determined by nuclear staining and fluorescence microscopy (left bar graph) and by annexin-V binding assay (right bar graph). The proportion of apoptotic cells in each culture without staurosporine was 8%+/−2. The percentage of apoptotic cells is expressed as the mean (bar)+SD of triplicate cultures. ICAM-2, 1CAM2-AC, or vector transduced NIH3T3, were treated with staurosporine ([…]) in the presence or absence of 10, μM LY294002, for 24, hours (right bar graph). DMSO vehicle served as negative control. The percentage of apoptotic cells is expressed as the mean (bar)+/−SD of triplicate cultures. B) Confocal images of PI3K and AKT localization in ICAM-2, (top) or vector control cells (bottom). C) Confocal images of ezrin and the p85, subunit of PI3K (green) localization in ICAM-2, (top) or vector control cells (bottom).
A) The anti-apoptotic effect of ICAM-2, is both wortmannin and LY294002, sensitive. ICAM-2, or vector transduced BaF3, cells were treated with staurosporine (1, μM) with (unfilled) or without (filled) the addition of 100, nM wortmannin for 24 hours. Apoptosis was determined by nuclear staining and fluorescence microscopy (left bar graph) and by annexin-V binding assay (right bar graph). The proportion of apoptotic cells in each culture without staurosporine was 8%±2. The percentage of apoptotic cells is expressed as the mean (bar)±SD of triplicate cultures. ICAM-2, ICAM2-ΔC, or vector transduced NIH3T3, were treated with staurosporine (1, μM) in the presence or absence of 10, μM LY294002, for 24, hours. DMSO vehicle served as negative control. The percentage of apoptotic cells is expressed as the mean (bar)±SD of triplicate cultures. B) ICAM-2, expressing NIH3T3, cells are sensitive to apoptosis in the presence of PI3K inhibitor LY294002. BrdU TUNEL assay was performed in staurosporine (1, μM) or LY294002, (10, μM) treated ICAM-2, ICAM2-ΔC, and control vector transduced NIH3T3, cells. The percentage of apoptotic cells is expressed as the mean (bar)±SD of triplicate cultures.
Apoptosis was determined either by counting pyknotic nuclei, annexin-V binding by flow cytometry, or TUNEL BrdU staining by flow cytometry as indicated. Apoptosis was induced either by staurosporine (1 μm), treatment with anti-mouse Fas (5 μq/ml Santa Cruz Biotechnology (SCB), […] Fas (5 μg/ml Jo2 Biomed) or anti-human Fas (10 ng/ml CH11 Kamiya Biomedical) as indicated in appropriate experiment, IL-3 withdrawal-(24 hrs) or as indicated. For pyknolic nuclei count, NIH3T3 cells were grown on glass coverslips and assayed for apoptosis. Suspension cells were analyzed by nuclear staining with 25 μM acridine orange/25 μm ethidium bromide or 5 μg/ml Hoechst 33342 (Molecular Probes, Eugene, Oreg.). Apoptosis was identified by the presence of characteristic pyknotic nuclei as described (Jacobson and Raff, 1995). At least 5 individual fields were photographed and counted using a Zeiss axioscope fluorescence microscope. For the survival assay 10^6 NIH3T3 cells were plated in 10 cm dishes and incubated overnight at 37° C. The cells were treated with 1 μM staurosporine for 24 hours. The cells were washed and cultured for 24 hours in complete medium. The cells were trypsinized and viable cells counted following trypan blue staining. Untreated cells were counted at the time of treatment. % survival represents (number of viable cells post-treatment)/(number of viable cells pretreatment). FACS based annexin-V-FITC/PI staining was done as described (PharMingen). TUNEL assay was performed as described by manufacturer of Apoptosis BrdU kit (Promega). […]

CD56+CD8+ cells = assay: flow cytometric conjugate formation assay of CD56+CD8+ cells and HL60 cells; type: cell-based, human; conditions: chemicals 10 μM 30 min prior to ICAM-2 10 μg/ml 30 min
Protocol: A) Conjugate formation of CFSE labeled HL60, cells and CD56^+, CD8^+, cells. Conjugate flow cytometric based assay was performed on PBMC treated with indicated chemicals (10, μM, 30, min) prior to treatment with ICAM-2, (10, μg/ml, 30, min). CFSE labeled HL60, cells were incubated at 25:1, E:T ratio for 5, min, and fixed with 1% paraformaldehyde. Cells were then immunolabeled with CD8 and CD56, antibodies, gated for CD8^+, CD56^+, cell populations and percent HL60, fluorescence was made relative to total HL60, cells. B) IL-2, activated PBMC were either treated with ICAM-2, (10 μg/ml, 30, min) or mock-treated (IgG) and stained for active-LFA-1, (mAb24-Alexa633), phospho-p44/42-Ax488, CD8-CY5PE, and CD56-PE.
Target cell lysis was measured by flow cytoemtric based detection of CFSE labeled HL60 cells. HL60 cells were labeled with 1 μg of CFSE (30 min, 37° C.). […] Percent specific lysis was calculated by the following equation: % specific lysis=100-100×(experimental HL60 count/total control HL60 count). HL60 counts were detectable by the CFSE fluorescence. Percent perforin was calculated by the following equation: % perforin=100×[(experimental perforin MFI−isotype mAb MFI)/(total perforin MFI−isotype mAb MFI)]. […] Cell conjugates were determined by flow cytometry as described (Morgan et al., 2001). […]

NK leukemic cell line YT = conditions: cited from earlier work
Syk = conditions: cited from earlier work
Raf and p44/42 MAPK = assay: phospho-raf and phospho-p44/42 immunoblot kinase inhibitor screen after ICAM-2 stimulus; type: cell-based, human; conditions: compound 10 μM 30 min, then ICAM-2 10 μg/ml 30 min
Protocol: Serum starved cells were treated with 10, μM of indicated compound 30, minutes prior to being ICAM-2, crosslinked for 30, minutes (10, μg/ml) and assessed for phosphorylated Raf and p44/42, MAPK using phospho specific antibodies in standard immunoblot procedures. Control IgG dissolved in 0.1% DMSO served as negative control. Blots are representative of triplicate experiments. […] Co-immunoprecipitation experiments were performed immunoprecipitating αL and β2, integrin and immunoblotting for the presence of SYK and PYK as a function of a stimulus for 30, minutes as indicated (antibodies used at 10, μg/ml, compounds used at 1, μM and control 19, served as negative control).
A) Phospho-raf and phospho-p44/42, immunoblot inhibition profile by tyrosine kinase inhibitors. […] Cell lysates were immunoblotted for phospho-raf and phospho-p44/42. […] Phospho-specificity was determined by phospho-PykpY402, and phospho-syk (Tyr525/526) antibodies. […] Cells were treated and processed as above. Phospho-specific PKCα/βII, (Thr638) and the following antibodies were used; Pyk2, and Syk were first immunoprecipated, probed with anti-phosphotyrosine antibody (PY20), stripped and subsequently probed with indicated non-phospho specific antibody. Immunoblots are representative of triplicate experiments. […]

Pyk2 = assay: sICAM-2 induced Pyk2 phosphorylation (phospho-tyrosine based ELISA, chemical genetic approach); type: cell-based; conditions: phospho-tyrosine based ELISA
Description: E) depicts that LFA-1, induced phosphorylation of Pyk2, and Syk is dependent on PKC. We screened for the inhibition of sICAM-2, induced Pyk2, and Syk phosphorylation by chemical inhibitors to tyrosine kinases using a phospho-tyrosine based ELISA. Pyk2, phosphorylation was abrogated in the presence of PKC inhibitors bisindolymaleimide II (BIM II) and staurosporine (STP), in addition to tyrphostin A9, a specific Pyk2, inhibitor. a Pyk2, phosphorylation was also affected by inhibitors of phospholipase Cg (neomycin), inhibitors of Syk (piceatannol), and PKC inhibitor BIM I. Syk phosphorylation was completely abolished by inhibition of Pyk2, PLCg1, and strongly affected by PKC inhibitors. Thus, both Pyk2, and Syk phosphorylations were dependent on PKC activity, while Syk phosphorylation was additionally dependent on PLCg1, and Pyk2, activity. It was not possible to assess specific PKC isozymes by this method.
A chemical genetic approach was undertaken to determine the hierarchy of PKC, Pyk2, PLCg1, and Syk activities in response to sICAM-2, stimulus by verifying phosphorylation status of each kinase in the presence of respective chemical inhibitors. Inhibition of PKC with BIM II abrogated phosphorylation of Pyk2, PLCg1, and Syk. Inhibition of PLCg1, by neomycin abrogated phosphorylation of Syk, with no inhibition observed for Pyk2. […] Thus, the upstream signaling events from LFA-1, to Raf-1, appear to involve PKC/Pyk2/PLCg1/Syk. […] We are currently pursuing these complexes in a separate study.

T1 sequence (P24063 24-1162): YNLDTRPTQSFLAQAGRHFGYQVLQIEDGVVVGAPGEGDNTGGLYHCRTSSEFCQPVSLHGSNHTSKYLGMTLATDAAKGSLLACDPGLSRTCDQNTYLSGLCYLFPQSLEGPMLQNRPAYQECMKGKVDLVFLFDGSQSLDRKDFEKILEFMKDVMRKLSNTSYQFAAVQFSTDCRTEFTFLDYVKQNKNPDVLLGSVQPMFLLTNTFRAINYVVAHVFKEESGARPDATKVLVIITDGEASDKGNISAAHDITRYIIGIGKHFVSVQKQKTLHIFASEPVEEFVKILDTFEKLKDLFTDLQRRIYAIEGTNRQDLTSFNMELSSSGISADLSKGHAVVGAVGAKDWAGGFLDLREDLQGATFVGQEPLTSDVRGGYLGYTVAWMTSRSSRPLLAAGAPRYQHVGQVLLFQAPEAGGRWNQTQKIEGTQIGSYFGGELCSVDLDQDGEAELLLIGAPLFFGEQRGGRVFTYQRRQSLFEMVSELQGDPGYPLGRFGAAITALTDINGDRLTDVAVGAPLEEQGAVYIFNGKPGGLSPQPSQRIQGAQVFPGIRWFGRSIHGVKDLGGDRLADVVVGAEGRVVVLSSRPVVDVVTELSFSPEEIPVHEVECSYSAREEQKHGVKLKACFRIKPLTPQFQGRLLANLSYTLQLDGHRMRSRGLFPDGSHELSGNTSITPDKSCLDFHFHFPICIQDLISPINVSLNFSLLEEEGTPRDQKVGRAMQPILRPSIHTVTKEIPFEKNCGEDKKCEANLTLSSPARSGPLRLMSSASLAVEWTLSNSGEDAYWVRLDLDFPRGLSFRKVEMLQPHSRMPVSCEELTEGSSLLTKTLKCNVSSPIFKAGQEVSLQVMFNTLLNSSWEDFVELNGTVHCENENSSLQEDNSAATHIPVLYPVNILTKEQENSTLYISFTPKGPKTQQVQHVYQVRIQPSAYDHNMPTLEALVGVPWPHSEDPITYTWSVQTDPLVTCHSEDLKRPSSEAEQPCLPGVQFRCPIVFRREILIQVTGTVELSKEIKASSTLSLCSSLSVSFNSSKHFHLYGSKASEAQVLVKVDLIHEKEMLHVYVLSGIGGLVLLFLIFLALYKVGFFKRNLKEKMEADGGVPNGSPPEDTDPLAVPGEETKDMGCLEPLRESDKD
T1 sequence (P11835 24-771 partner): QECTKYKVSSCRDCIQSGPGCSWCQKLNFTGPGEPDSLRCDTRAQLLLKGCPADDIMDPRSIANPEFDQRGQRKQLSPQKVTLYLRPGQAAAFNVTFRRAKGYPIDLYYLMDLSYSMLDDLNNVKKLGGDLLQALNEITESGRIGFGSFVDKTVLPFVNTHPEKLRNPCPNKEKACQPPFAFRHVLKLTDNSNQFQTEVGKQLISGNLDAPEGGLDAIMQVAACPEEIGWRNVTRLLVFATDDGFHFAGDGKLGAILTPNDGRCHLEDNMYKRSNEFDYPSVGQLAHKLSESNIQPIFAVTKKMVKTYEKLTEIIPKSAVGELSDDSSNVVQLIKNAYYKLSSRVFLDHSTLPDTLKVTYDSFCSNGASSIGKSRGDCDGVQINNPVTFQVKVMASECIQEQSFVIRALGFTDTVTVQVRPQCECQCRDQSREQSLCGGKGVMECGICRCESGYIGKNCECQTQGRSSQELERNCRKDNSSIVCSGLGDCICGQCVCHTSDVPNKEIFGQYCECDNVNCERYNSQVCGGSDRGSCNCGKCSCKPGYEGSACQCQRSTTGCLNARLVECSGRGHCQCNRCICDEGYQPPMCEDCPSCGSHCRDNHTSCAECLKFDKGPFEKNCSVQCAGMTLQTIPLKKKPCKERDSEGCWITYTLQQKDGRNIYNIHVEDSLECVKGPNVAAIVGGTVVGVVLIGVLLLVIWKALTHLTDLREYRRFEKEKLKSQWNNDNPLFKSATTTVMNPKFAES

SMILES: CC[C@H](C)C(=O)O[C@H]1C[C@@H](C)C=C2C=C[C@H](C)[C@H](CC[C@H]3C[C@@H](O)CC(=O)N3Cc3ccc4c(CO)c(OC)ccc4c3)[C@H]21 [LFA703]
- inflammatory response (LFA-1): suppressed the inflammatory response

SMILES: COc1cccc(-c2cc(=O)c3ccccc3o2)c1N [PD98059]
- effect on ICAM-2 anti-apoptotic effect, other kinase inhibitors (NIH3T3): not abrogated
- effector-target (E:T) conjugate formation (CD56+CD8+ cells): did not
- perforin redistribution (NK leukemic cell line YT): inhibits perforin redistribution to the site of effector-target cell contact

SMILES: Oc1cc(O)cc(/C=C/c2ccc(O)c(O)c2)c1 [piceatannol]
- natural cytotoxicity (Syk): inhibits natural cytotoxicity

SMILES: CC(C)(C)c1cc(C=C(C#N)C#N)cc(C(C)(C)C)c1O [tyrphostin A9]
- effect on ICAM-2 induced activation of Raf and p44/42 MAPK (Raf and p44/42 MAPK): abrogated
- sICAM-2 induced Pyk2 phosphorylation (Pyk2): abrogated
